For 24 compounds, IC50 results are on record in patent US10676479B2, “Imidazolepyridine compounds and uses thereof” (Novartis AG, priority 2016, dated 2020).

SMILES strings stand for the structures.

One may read the IC50 as the concentration that gives 50% inhibition.

The target of test [1] is EED (1-441)-His protein (Homo sapiens (Human), UniProt O75530). The test can be described thus: EED-H3K27Me3 peptide competition binding assay by AlphaScreen. The settings on record: EED Alphascreen binding Qualified assay.
Chain of EED (1-441)-His protein (O75530 whole entry): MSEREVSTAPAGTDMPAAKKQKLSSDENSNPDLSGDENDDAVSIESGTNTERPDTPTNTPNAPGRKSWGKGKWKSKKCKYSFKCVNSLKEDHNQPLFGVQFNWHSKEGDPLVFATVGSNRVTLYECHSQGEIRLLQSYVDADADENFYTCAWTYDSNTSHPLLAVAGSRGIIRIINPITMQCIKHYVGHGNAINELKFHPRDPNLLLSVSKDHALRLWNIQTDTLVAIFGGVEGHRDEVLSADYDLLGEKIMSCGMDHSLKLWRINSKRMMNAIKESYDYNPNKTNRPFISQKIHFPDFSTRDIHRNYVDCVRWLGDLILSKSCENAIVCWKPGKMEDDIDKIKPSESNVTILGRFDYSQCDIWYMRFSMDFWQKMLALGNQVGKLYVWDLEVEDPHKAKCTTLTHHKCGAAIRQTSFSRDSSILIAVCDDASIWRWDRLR
Test [2] has as its target wild type PRC2 (wtPRC2) complex (Homo sapiens (Human), UniProt O75530). The test can be described thus: EED LC-MS assay. The class given is biochemical. As to conditions: EED LC-MS Qualified assay; read-out: (b) IC50. As to the method:
EED LC-MS Assay Representative compounds of the present invention were serially and separately diluted 3-fold in DMSO to obtain a total of eight or twelve concentrations. […] A 6 μL solution of 3 μM of the peptide substrate H3K27Me0 (histone H3[21-44]-biotin) in reaction buffer was added to initiate each reaction. […] The data were then fit to a dose response equation using the program Helios to get the IC50 values of the test compound.

Test [3] has as its system H3K27 methylation in G401 cell. The test is described as follows: ELISA (H3K27 methylation) assay. The class given is cell-based. As to conditions: Homo sapiens, G-401, ELISA Qualified assay, 48 h, read-out: (c) IC50. A digest of the protocol:
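G401 cells given 3-fold serial dilutions (eight or twelve points, top 20 μM) for 48 h. Lysate ELISA for H3K27 methylation normalized to H3 signal, % inhibition versus DMSO, IC50 from dose-response fit.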
For orientation: In an ELISA, binding on a coated surface is turned into a signal by an enzyme label.

Chain of wild type PRC2 (wtPRC2) complex (O75530 whole entry): as above
Chain of wild type PRC2 (wtPRC2) complex (Q15910 whole entry partner): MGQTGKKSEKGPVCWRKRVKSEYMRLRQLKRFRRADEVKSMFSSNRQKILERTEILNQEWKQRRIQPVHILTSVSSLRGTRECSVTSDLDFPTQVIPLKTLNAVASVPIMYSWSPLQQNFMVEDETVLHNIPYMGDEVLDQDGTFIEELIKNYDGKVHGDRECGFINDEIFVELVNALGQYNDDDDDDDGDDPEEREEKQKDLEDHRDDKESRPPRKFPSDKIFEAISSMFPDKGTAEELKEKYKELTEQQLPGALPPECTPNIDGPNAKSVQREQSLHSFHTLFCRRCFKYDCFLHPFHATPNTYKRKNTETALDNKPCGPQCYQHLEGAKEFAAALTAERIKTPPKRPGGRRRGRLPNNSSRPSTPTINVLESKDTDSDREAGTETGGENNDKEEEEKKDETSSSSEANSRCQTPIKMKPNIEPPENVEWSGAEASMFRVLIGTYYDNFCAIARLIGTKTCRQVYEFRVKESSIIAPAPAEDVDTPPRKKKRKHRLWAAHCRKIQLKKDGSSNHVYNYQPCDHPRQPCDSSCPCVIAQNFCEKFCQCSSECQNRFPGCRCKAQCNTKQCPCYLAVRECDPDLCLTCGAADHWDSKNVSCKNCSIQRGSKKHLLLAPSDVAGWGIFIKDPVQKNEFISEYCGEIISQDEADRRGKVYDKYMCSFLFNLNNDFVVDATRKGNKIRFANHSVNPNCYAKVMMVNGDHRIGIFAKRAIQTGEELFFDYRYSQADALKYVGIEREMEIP
Chain of wild type PRC2 (wtPRC2) complex (Q15022 whole entry partner): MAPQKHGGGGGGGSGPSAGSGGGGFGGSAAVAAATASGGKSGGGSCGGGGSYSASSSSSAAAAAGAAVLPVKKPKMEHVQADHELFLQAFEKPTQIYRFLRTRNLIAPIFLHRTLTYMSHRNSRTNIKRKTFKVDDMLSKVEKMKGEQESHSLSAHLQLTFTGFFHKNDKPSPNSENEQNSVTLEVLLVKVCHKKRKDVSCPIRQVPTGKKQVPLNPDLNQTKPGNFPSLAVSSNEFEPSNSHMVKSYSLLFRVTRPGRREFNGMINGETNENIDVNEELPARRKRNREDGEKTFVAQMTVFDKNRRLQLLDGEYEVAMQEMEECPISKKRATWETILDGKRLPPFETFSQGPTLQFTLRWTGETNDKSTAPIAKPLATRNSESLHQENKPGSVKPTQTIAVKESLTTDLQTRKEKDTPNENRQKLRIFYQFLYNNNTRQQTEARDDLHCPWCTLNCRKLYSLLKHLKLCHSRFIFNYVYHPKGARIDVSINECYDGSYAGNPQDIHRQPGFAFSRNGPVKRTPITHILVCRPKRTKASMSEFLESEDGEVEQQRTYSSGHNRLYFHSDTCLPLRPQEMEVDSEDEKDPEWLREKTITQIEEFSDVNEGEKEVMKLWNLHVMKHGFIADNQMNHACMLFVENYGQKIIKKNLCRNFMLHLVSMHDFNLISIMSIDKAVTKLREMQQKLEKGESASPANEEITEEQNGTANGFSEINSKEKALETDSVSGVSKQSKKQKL

For `Cc1ncc(-c2cnc(NCc3c(F)ccc4c3CCO4)n3cncc23)c(C)n1` [Example 1, 8-(2,4-Dimethylpyrimidin-5-yl)-N-((5-fluoro-2,3-dihydrobenzofuran-4-yl)methyl)imidazo[1,5-c]pyrimidin-5-amine], the IC50 in test [1] worked out at 0.0072 µM; in test [2], 0.0132 µM; in test [3] it was 0.0248 µM.
Regarding `Cc1ncc(-c2cnc(NCc3c(F)ccc4c3CCO4)n3cncc23)cn1` [Example 50, N-((5-fluoro-2,3-dihydrobenzofuran-4-yl)methyl)-8-(2-methylpyrimidin-5-yl)imidazo[1,5-c]pyrimidin-5-amine], the half-inhibitory concentration (IC50) in test [1] is 0.0071 µM; in test [2] it was 0.0162 µM; in test [3], 0.0742 µM.
Consider `CC(=O)c1ncn2c(NCc3c(F)ccc4c3CCO4)ncc(-c3cnc(C)nc3C)c12` [Example 16, 1-(8-(2,4-Dimethylpyrimidin-5-yl)-5-(((5-fluoro-2,3-dihydrobenzofuran-4-yl)methyl)amino)-imidazo[1,5-c]pyrimidin-1-yl)ethan-1-one], for which the results for the IC50 in test [1], in test [2] and in test [3] were 0.0091 µM, 0.0175 µM and 0.0076 µM, respectively.
Regarding `Cc1ncccc1-c1cnc(NCc2c(F)ccc3c2CCO3)n2cnc(C(=O)NCCO)c12` [Example 107, 5-(((5-fluoro-2,3-dihydrobenzofuran-4-yl)methyl)amino)-N-(2-hydroxyethyl)-8-(2-methylpyridin-3-yl)imidazo[1,5-c]pyrimidine-1-carboxamide], the values for the IC50 in test [1], in test [2] and in test [3] were 0.0077 µM, 0.0069 µM and 0.0256 µM, respectively.
Regarding `COc1cc(CNc2ncc(-c3cccnc3C)c3c(C#N)ncn23)c(F)cc1F` [Example 89, 5-((2,4-difluoro-5-methoxybenzyl)amino)-8-(2-methylpyridin-3-yl)imidazo[1,5-c]pyrimidine-1-carbonitrile], the figures for the IC50 in test [1], in test [2] and in test [3] were 0.0296 µM, 0.0425 µM and 0.195 µM, respectively.
`CCOC(=O)c1ncn2c(NCc3cc(OC)c(F)cc3F)ncc(-c3cccnc3C)c12` [Example 96, ethyl 5-((2,4-difluoro-5-methoxybenzyl)amino)-8-(2-methylpyridin-3-yl)imidazo[1,5-c]pyrimidine-1-carboxylate]: the concentration for half-maximal inhibition (IC50) in test [1] amounted to 0.0158 µM; in test [2] it was 0.0168 µM; in test [3], 0.114 µM.
`Cc1cc(S(C)(=O)=O)ccc1-c1cnc(NCc2c(F)ccc3c2CCO3)n2cncc12` [Example 42, N-((5-fluoro-2,3-dihydrobenzofuran-4-yl)methyl)-8-(2-methyl-4-(methylsulfonyl)phenyl)imidazo[1,5-c]pyrimidin-5-amine]: the figures for the 50% inhibitory concentration (IC50) in test [1], in test [2] and in test [3] were 0.0104 µM, 0.0085 µM and 0.0795 µM, respectively.
On to `Fc1ccc2c(c1CNc1ncc(-c3cccnc3C(F)F)c3cncn13)CCO2` [Example 51, 8-(2-(difluoromethyl)pyridin-3-yl)-N-((5-fluoro-2,3-dihydrobenzofuran-4-yl)methyl)imidazo[1,5-c]pyrimidin-5-amine], for which the 50% inhibitory concentration (IC50) worked out at 0.0052 µM in test [1], 0.0094 µM in test [2] and 0.0064 µM in test [3].
Turning to `Cc1ncccc1-c1ncn2c(NCc3c(F)ccc4c3CCO4)ncc(-c3ccc(S(C)(=O)=O)cc3)c12` [Example 112, N-((5-fluoro-2,3-dihydrobenzofuran-4-yl)methyl)-1-(2-methylpyridin-3-yl)-8-(4-(methylsulfonyl)phenyl)imidazo[1,5-c]pyrimidin-5-amine], the figures for the IC50 in test [1], in test [2] and in test [3] were 0.0105 µM, 0.0121 µM and 0.0131 µM, respectively.
`CN(C)c1ccc(-c2cnc(NCc3c(F)ccc4c3CCO4)n3cncc23)cn1` [Example 41, 8-(6-(dimethylamino)pyridin-3-yl)-N-((5-fluoro-2,3-dihydrobenzofuran-4-yl)methyl)imidazo[1,5-c]pyrimidin-5-amine]: the IC50 in test [1] came out at 0.0412 µM; in test [2], 0.0146 µM; in test [3] it was 0.0512 µM.
In the case of `c1cc(CNc2ncc(-c3ccncc3)c3cncn23)c2ccoc2c1` [Example 65, N-(benzofuran-4-ylmethyl)-8-(pyridin-4-yl)imidazo[1,5-c]pyrimidin-5-amine], the IC50 in test [1] came out at 0.285 µM; in test [2], 0.0932 µM; in test [3], 0.641 µM.
The corresponding values for `Cc1ncc(-c2cnc(NCc3c(F)ccc4c3CCO4)n3cnc(-c4ncco4)c23)c(C)n1` [Example 11, 8-(2,4-dimethylpyrimidin-5-yl)-N-((5-fluoro-2,3-dihydrobenzofuran-4-yl)methyl)-1-(oxazol-2-yl)imidazo[1,5-c]pyrimidin-5-amine] are 0.0126 µM, 0.0171 µM and 0.0069 µM.
The corresponding values for `Fc1ccc2c(c1CNc1ncc(-c3ccc(CN4CCC4)cc3)c3cncn13)CCO2` [Example 55, 8-(4-(azetidin-1-ylmethyl)phenyl)-N-((5-fluoro-2,3-dihydrobenzofuran-4-yl)methyl)imidazo[1,5-c]pyrimidin-5-amine] are 0.0033 µM, 0.0137 µM and 0.0374 µM.
As to `CCOC(=O)c1ncn2c(NCc3cc(OC)c(F)cc3F)ncc(-c3ccc(S(C)(=O)=O)cc3)c12` [Example 7, Ethyl 5-((2,4-difluoro-5-methoxybenzyl)amino)-8-(4-(methylsulfonyl)phenyl)imidazo[1,5-c]pyrimidine-1-carboxylate], the 50% inhibitory concentration (IC50) in test [1] worked out at 0.0168 µM; in test [2], 0.0168 µM; in test [3] it was 0.236 µM.
As to `Cc1ncccc1-c1cnc(NCc2c(F)ccc3c2CCO3)n2cnc(C#N)c12` [Example 69, 5-(((5-fluoro-2,3-dihydrobenzofuran-4-yl)methyl)amino)-8-(2-methylpyridin-3-yl)imidazo[1,5-c]pyrimidine-1-carbonitrile], the values for the IC50 in test [1], in test [2] and in test [3] were 0.009 µM, 0.0141 µM and 0.0147 µM, respectively.
For the compound `CN(C)Cc1ccc(-c2cnc(NCc3c(F)ccc4occc34)n3cncc23)cc1` [Example 67, 8-(4-((dimethylamino)methyl)phenyl)-N-((5-fluorobenzofuran-4-yl)methyl)imidazo[1,5-c]pyrimidin-5-amine], the 50% inhibitory concentration (IC50) worked out at 0.0576 µM in test [1], 0.0703 µM in test [2] and 0.35 µM in test [3].
Turning to `Fc1ccc2c(c1CNc1ncc(-c3ccc(C(F)F)nc3)c3cncn13)CCO2` [Example 60, 8-(6-(difluoromethyl)pyridin-3-yl)-N-((5-fluoro-2,3-dihydrobenzofuran-4-yl)methyl)imidazo[1,5-c]pyrimidin-5-amine], the figures for the IC50 in test [1], in test [2] and in test [3] were 0.0153 µM, 0.0113 µM and 0.0521 µM, respectively.
As to `CCC(O)c1ncc(-c2cnc(NCc3c(F)ccc4c3CCO4)n3cnc(C#N)c23)c(C)n1` (stereo not drawn) [Example 80, 5-(((5-fluoro-2,3-dihydrobenzofuran-4-yl)methyl)amino)-8-(2-(1-hydroxypropyl)-4-methylpyrimidin-5-yl)imidazo[1,5-c]pyrimidine-1-carbonitrile], the IC50 in test [1] is 0.0105 µM; in test [2], 0.0345 µM; in test [3], 0.0142 µM.
As for `N#Cc1ccc(-c2cnc(NCc3c(F)ccc4c3CCO4)n3cncc23)cn1` [Example 31, 5-(5-(((5-fluoro-2,3-dihydrobenzofuran-4-yl)methyl)amino)imidazo[1,5-c]pyrimidin-8-yl)picolinonitrile], the IC50 in test [1] came out at 0.0144 µM; in test [2], 0.0209 µM; in test [3], 0.0399 µM.
Take `N#Cc1ncn2c(NCc3c(F)ccc4c3CCO4)ncc(Br)c12` [Example 70, 8-bromo-5-(((5-fluoro-2,3-dihydrobenzofuran-4-yl)methyl)amino)imidazo[1,5-c]pyrimidine-1-carbonitrile]: the IC50 in test [1] stood at 0.0279 µM; in test [2] it was 0.0486 µM; in test [3] it was 0.0868 µM.
With `CS(=O)(=O)c1ccc(-c2cnc(NCc3c(F)ccc4c3CCO4)n3cnc(-c4ncco4)c23)cc1` [Example 118, N-((5-fluoro-2,3-dihydrobenzofuran-4-yl)methyl)-8-(4-(methylsulfonyl)phenyl)-1-(oxazol-2-yl)imidazo[1,5-c]pyrimidin-5-amine], the IC50 in test [1] amounted to 0.0048 µM; in test [2], 0.0055 µM; in test [3], 0.0026 µM.
Consider `CN1CCc2ccc(-c3cnc(NCc4c(F)ccc5c4CCO5)n4cncc34)cc2C1` [Example 26, N-((5-fluoro-2,3-dihydrobenzofuran-4-yl)methyl)-8-(2-methyl-1,2,3,4-tetrahydroisoquinolin-7-yl)imidazo[1,5-c]pyrimidin-5-amine], for which the results for the IC50 in test [1], in test [2] and in test [3] were 0.0503 µM, 0.0415 µM and 0.0541 µM, respectively.
Take `CCOC(=O)c1ncn2c(NCc3c(F)cccc3OC)ncc(-c3cccnc3C)c12` [Example 99, ethyl 5-((2-fluoro-6-methoxybenzyl)amino)-8-(2-methylpyridin-3-yl)imidazo[1,5-c]pyrimidine-1-carboxylate]: the IC50 in test [1] worked out at 0.016 µM; in test [2], 0.0146 µM; in test [3], 0.0686 µM.
The corresponding values for `Cc1cnccc1-c1cnc(NCc2c(F)ccc3c2CCO3)n2cncc12` [Example 36, N-((5-fluoro-2,3-dihydrobenzofuran-4-yl)methyl)-8-(3-methylpyridin-4-yl)imidazo[1,5-c]pyrimidin-5-amine] are 0.0076 µM, 0.0179 µM and 0.0513 µM.
